Assay results reported in patent US9720005B2, “Immunoassay for compounds of the NBOMe family” (Randox Laboratories Limited, priority 2014, dated 2017).
≈ marks a conversion by molar mass, not a printed value. Where a name gives a salt, the structure may show the parent alone.

Legend:
Antibody (RS2708) = test: Competitive ELISA for NBOMe based compounds (Example 13), HRP tracer vs calibrator/cross-reactant; type: binding, sheep; details: for % Cross-reactivity: IC50 25I-NBOMe.HCL/IC50 CR×100; for % CR: relative to 25I-NBOMe.HCl
Procedure: IgG was extracted from the antisera using ammonium sulphate/caprylic acid precipitation and the purified antibody was immobilised on a 96 well ELISA plate at 5 μg/ml in 10 mM TRIS buffer, pH 8.5 overnight at 4° C. […] The plate was washed (×3) with TBST and the calibrator (25I-NBOMe.HCL) or potential cross reactants added (50 μl per well), followed by HRP tracer (75 μl/well) to the appropriate wells. The plates were then incubated for 60 minutes at 25° C. […] 125 μL of signal (TMB) was then added to each well for 20 mins at room temperature in the dark. The reaction was stopped by the addition of 125 μl of 0.2 M Sulphuric Acid per well and the plates read immediately at 450 nm. Calibration curves were generated and these were used to determine the sensitivity and specificity of the immunoassay for 25I-NBOMe-HCL and potential cross-reactants. The data are inputted to a computer program called ‘KC Junior’ (Biotek). It gives a 4 parameter fit curve and allows the calculation of concentrations between the standard runs. This program is used to calculate the IC50 values by dividing the 0 ng/ml optical density (OD) value by 2 and obtaining the concentration value from the curve for this OD. The results of this study are presented in Tables 1-3, cross-reactivity being calculated according to the following formula: % CR=IC50 25I-NBOMe.HCL/IC50 CR×100
Wherein % CR is the percentage cross-reactivity, IC50 25I-NBOMe HCL is the concentration of 25I-NBOMe-HCL which causes 50% displacement of signal and IC50 CR is the concentration of potential cross-reactant that causes 50% displacement of signal.

[1] = recreational drug use; cited from earlier work
[2] = case study of 25I-NBOMe use; cited from earlier work
[3] = Table 2, antibody coated at 5 μg/ml, HRP tracer at 1/64K

| SMILES | % Cross-reactivity (Antibody (RS2708); Table 2) [%] | IC50 (Antibody (RS2708); [3]) [ng/mL] | also measured |
| --- | --- | --- | --- |
| COc1cc(CCNCc2ccccc2O)c(OC)cc1N [25(NH2)-NBOH] | 18.5 | 0.887 (≈ 2.93 nM) |  |
| COc1cc(CCNCc2ccccc2OC)c(OC)cc1Br [25B-NBOMe•HCl, 2-(4-Bromo-2,5-dimethoxyphenyl)-N-[(2-methoxyphenyl)methyl]ethanamine] | 118.8 | 0.138 |  |
| COc1cc(CCNCc2ccccc2OC)c(OC)cc1C [25D-NBOMe•HCl, 2-(2,5-Dimethoxy-4-methylphenyl)-N-[(2-methoxyphenyl)methyl]ethanamine] | 157.7 | 0.104 |  |
| CCc1cc(OC)c(CCNCc2ccccc2OC)cc1OC [25E-NBOMe•HCl] | 126.2 | 0.13 |  |
| COc1ccc(OC)c(CCNCc2ccccc2OC)c1 [25H-NBOMe•HCl, 2-(2,5-dimethoxyphenyl)-N-(2-methoxybenzyl)ethanamine] | 170.8 | 0.096 |  |
| COc1cc(CCNCc2ccccc2OC)c(OC)cc1I [25I-NBOMe•HCl, 2-(4-Iodo-2,5-dimethoxyphenyl)-N-[(2-methoxyphenyl)methyl] ethanamine] | 100 | 0.164 | B/Bo (Antibody (RS2708); Conc. 0.03125 ng/ml, 0 ng/ml = 100.0): 90.2; B/Bo (Antibody (RS2708); Conc. 0.0625 ng/ml, 0 ng/ml = 100.0): 80.2; B/Bo (Antibody (RS2708); Conc. 0.125 ng/ml, 0 ng/ml = 100.0): 61.3; B/Bo (Antibody (RS2708); Conc. 0.25 ng/ml, 0 ng/ml = 100.0): 33.4; B/Bo (Antibody (RS2708); Conc. 0.5 ng/ml, 0 ng/ml = 100.0): 14.7; B/Bo (Antibody (RS2708); Conc. 1 ng/ml, 0 ng/ml = 100.0): 7.6; B/Bo (Antibody (RS2708); Conc. 2 ng/ml, 0 ng/ml = 100.0): 5.3; IC50 (Antibody (RS2708); Table 1, antibody coated at 5 μg/ml, HRP tracer at 1/64K): 0.164 ng/mL |
| COc1cc([N+](=O)[O-])c(OC)cc1CCNCc1ccccc1OC [25N-NBOMe•HCl, N-(2-Methoxybenzyl)-2-(2,5-dimethoxy-4-nitrophenyl)ethylamine] | 115.5 | 0.142 |  |
| CCCc1cc(OC)c(CCNCc2ccccc2OC)cc1OC [25P-NBOMe•HCl] | 111.6 | 0.147 |  |
| CCSc1cc(OC)c(CCNCc2ccccc2OC)cc1OC.Cl [25T2-NBOMe•HCl] | 120.6 | 0.136 |  |
| COc1cc(SC(C)C)c(OC)cc1CCNCc1ccccc1OC [25T4-NBOMe•HCl] | 118 | 0.139 |  |
| CCCSc1cc(OC)c(CCNCc2ccccc2OC)cc1OC [25T7-NBOMe•HCl] | 118 | 0.139 |  |
| COc1cc(CCN)c(OC)cc1Br [Compound 2C-B] |  |  | B/Bo (Antibody (RS2708); Table 4, samples @ 100 ng/ml): 89.9; IC50 (Antibody (RS2708); Table 4, samples @ 100 ng/ml): >100; % CR (Antibody (RS2708); Table 4, samples @ 100 ng/ml): <0.16% |
| CCc1cc(OC)c(CCN)cc1OC [Compound 2C-E] |  |  | B/Bo (Antibody (RS2708); Table 4, samples @ 100 ng/ml): 92.2; IC50 (Antibody (RS2708); Table 4, samples @ 100 ng/ml): >100; % CR (Antibody (RS2708); Table 4, samples @ 100 ng/ml): <0.16% |
| COc1cc(CCN)c(OC)cc1I [Compound 2C-I] |  |  | B/Bo (Antibody (RS2708); Table 4, samples @ 100 ng/ml): 88.8; IC50 (Antibody (RS2708); Table 4, samples @ 100 ng/ml): >100; % CR (Antibody (RS2708); Table 4, samples @ 100 ng/ml): <0.16%; dose [1]: around 20 milligrams |
| COc1cc(CCNCc2ccccc2OC)c(OC)cc1I [Compound 25I-NBOMe, 2-(4-Iodo-2,5-dimethoxyphenyl)-N-[(2-methoxyphenyl)methyl] ethanamine] |  |  | dose [1]: less than one milligram; Clinical features [2]: tachycardia, hypertension, agitation, aggression, visual and auditory hallucinations, seizures, hyperplexia, clonus, elevated white cell count, elevated creatine kinase, metabolic acidosis and acute kidney injury |
| COc1cc([N+](=O)[O-])c(OC)cc1CCNCc1ccccc1O [Compound 25N-NBOH] | 26.7 | 0.615 (≈ 1.85 nM) |  |
| COc1cc(CC(C)N)c(OC)cc1Br (stereo not shown) [DOB, 2,5-Dimethoxy-4-bromoamphetamine] |  |  | B/Bo (Antibody (RS2708); Table 4, samples @ 100 ng/ml): 91.8; IC50 (Antibody (RS2708); Table 4, samples @ 100 ng/ml): >100; % CR (Antibody (RS2708); Table 4, samples @ 100 ng/ml): <0.16% |
| COc1ccccc1CNCCc1cc(OC)c(OC)c(OC)c1.Cl [Mescaline-NBOMe•HCl] | 164 | 0.1 |  |
